Laboratory results reported in patent publication EP0643712B1, “SPIRO-OXETANES, PROCESS FOR PREPARING THE SAME AND MEDICAMENTS” (BOEHRINGER MANNHEIM GMBH, priority 1992, dated 1993).

Tests used:
[1] = target: T1, humane rekombinante Typ II PLA2 (Homo sapiens, UniProt P14555); experiment: In-vitro inhibition of PLA2 enzyme activity; type: biochemical; details: for inhibition at 1 µg/mL / inhibition at 10 µg/mL / inhibition at 100 µg/mL: read-out: PLA2 in % (Hemmung der Enzymaktivität); for PLA2 in % (Hemmung der Enzymaktivität) / inhibition at 100 µg/mL: 100 µg/ml
T1 sequence (P14555 21-144): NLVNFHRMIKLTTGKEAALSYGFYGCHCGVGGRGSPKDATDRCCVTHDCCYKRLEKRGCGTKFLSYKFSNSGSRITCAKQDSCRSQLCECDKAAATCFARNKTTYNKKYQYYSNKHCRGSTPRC
Text: Als typischer Vertreter einer PLA2 wurde die humane rekombinante Typ-II-PLA2 (= synoviale PLA2) zur Testung eingesetzt.
Die Tabelle 1 enthält die prozentuale in-vitro Hemmung dieses Enzyms durch die Verbindung des Beispiels 1, einen Spiro-Oxetan-Vertreter. Das Enzym wird dosisabhängig bis zu 93 % inhibiert.

humanen Thrombozyten = experiment: Inhibition of collagen-induced arachidonic acid (3H-AA) release from platelets; type: cell-based; details: Homo sapiens, Platelet, read-out: AA in % (Hemmung der Collagen induzierten Arachidonsäurefreisetzung)
Text: Als weiterer Indikator einer PLA2-Inhibition gilt eine Hemmung der AA-Freisetzung aus Thrombozyten. Zu diesem Zweck werden die Thrombozyten mit ^3H-AA inkubiert. Diese zugegebene radioaktive Arachidonsäure baut sich in Membranphospholipide ein. Anschließend wird die thrombozytäre PLA2 über den Collagenrezeptor aktiviert und ^3H-AA so aus Phospholipen wieder ins Medium freigesetzt, wo sie quantifiziert werden kann.

Structure (SMILES)	inhibition at 1 µg/mL [1]	inhibition at 10 µg/mL [1]	PLA2 in % (Hemmung der Enzymaktivität) [1]	inhibition at 100 µg/mL [1]	inhibition at 1 µg/mL (humanen Thrombozyten)	inhibition at 10 µg/mL (humanen Thrombozyten)	inhibition at 100 µg/mL (humanen Thrombozyten)
O=C1C=CC2(C=C1)CC1(CCC(=O)O1)O2 (centres unmarked) [Bsp. 1, 1,6-Dioxadispiro[4.1.5.1]trideca-8,11-dien-2,10-dion]	11%	37%	93%	≤ 93%	42%	86%	100%
COc1ccc2c(c1)c(CC(=O)O)c(C)n2C(=O)c1ccc(Cl)cc1 [Indomethacin]	0%	10%	52%	52%	6%	18%	23%
